Data taken from patent publication US9333189B2, “Taxane- and taxoid-protein compositions” (ONCBIOMUNE, INC., priority 2010, dated 2016).
Read-outs that look alike come from different tables or passages of the source.

Test system: MCF-7 cells
Experiment: 3H-thymidine incorporation cell growth assay, MCF-7
Assay type: cell-based, Human
[1] = daunorubicin bound to metal-transferrin by glutaraldehyde, read-out: IC50 of Drugs bound by a Glutaraldehyde Reaction to the Surface of Transferrin (M): Daunorubicin
[2] = metal-transferrin without drug, read-out: IC50 of Drugs bound by a Glutaraldehyde Reaction to the Surface of Transferrin (M): No Drug

Procedure: Human cancer cell lines were obtained from the American Type Culture Collection (Rockville, Md.); the NCI/Adr-Res cell line came from the National Cancer Institute (Bethesda, Md.). The cancer cell lines were maintained in alpha-MEM supplemented with 10% fetal calf serum, 1 mM glutamine and 0.05 mg/mL gentamicin (Life Technologies, Inc., Frederick, Md.) in 5% CO2 at 37° C. Cells were removed from cell culture flask or plate by trypsin-EDTA (0.05% trypsin and 0.53 mM EDTA) digestion.
Cell growth was measured with a ^3[H]-thymidine incorporation assay. Cancer cells were plated into each well of a 96-well cell culture plate as noted in Table 2 (e.g., MCF-7 cells were plated at 3000 cells/well) and incubated overnight. Culture media was replaced with media containing increasing concentrations of transferrin based drugs, and the cells were incubated with these drugs for 3 days. Then, ^3[H]-thymidine (0.1 uCi/well) was added to each well for the last 16 hours of incubation. The cells were removed from the plate by trypsin-EDTA digestion and harvested onto a glass-fiber filter (Skatron basic96 Harvester, Shatron Inc., Sterling, Va.). The radioactivity incorporated into the cellular DNA was determined by liquid scintillation counting (LS 6500, Beckman Co., Fullerton, Calif.). Cell proliferation was quantitated by ^3[H]-thymidine incorporation and expressed as a percentage of the untreated control. The experiments were repeated a minimum of three times independently.

| Substance | IC50 [1] | IC50 [2] |
| --- | --- | --- |
| Ga-tf Daunorubicin: Daunorubicin bound by a glutaraldehyde reaction to the surface of gallium-transferrin | 3.6e-07 M | – |
| Ga-tf: Human transferrin loaded with gallium, no drug | – | 3.4e-06 M |
| Fe-tf Daunorubicin: Daunorubicin bound by a glutaraldehyde reaction to the surface of iron-transferrin | 2.2e-07 M | – |
| In-tf: Indium-transferrin, no drug | – | 2.7e-06 M |
| In-tf Daunorubicin: Daunorubicin bound by a glutaraldehyde reaction to the surface of indium-transferrin | 2.7e-08 M | – |
